Assay results published in ChEMBL document CHEMBL1136751 (J Med Chem, 2003).

How the values were obtained:
[1] = molecular target: T1, Peroxisome proliferator-activated receptor alpha (Homo sapiens, UniProt Q07869); assay: Receptor binding affinity to human Peroxisome proliferator activated receptor alpha against [3H]-NNC 0061-4655 radioligand
T1 sequence (Q07869 whole entry): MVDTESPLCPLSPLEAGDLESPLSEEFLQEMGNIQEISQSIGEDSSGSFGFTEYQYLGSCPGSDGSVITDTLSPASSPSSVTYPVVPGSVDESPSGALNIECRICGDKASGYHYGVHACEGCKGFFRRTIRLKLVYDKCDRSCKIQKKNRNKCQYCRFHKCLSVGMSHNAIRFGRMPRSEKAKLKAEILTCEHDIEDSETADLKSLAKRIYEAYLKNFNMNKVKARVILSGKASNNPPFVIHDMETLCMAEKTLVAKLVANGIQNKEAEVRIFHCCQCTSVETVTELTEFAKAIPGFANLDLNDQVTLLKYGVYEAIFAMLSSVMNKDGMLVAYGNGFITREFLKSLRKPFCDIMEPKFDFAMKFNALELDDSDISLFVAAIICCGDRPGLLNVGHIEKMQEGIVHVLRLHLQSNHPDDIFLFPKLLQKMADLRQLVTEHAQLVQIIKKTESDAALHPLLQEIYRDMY

[2] = molecular target: T2, Peroxisome proliferator-activated receptor gamma (Homo sapiens, UniProt P37231)
T2 sequence (P37231 whole entry): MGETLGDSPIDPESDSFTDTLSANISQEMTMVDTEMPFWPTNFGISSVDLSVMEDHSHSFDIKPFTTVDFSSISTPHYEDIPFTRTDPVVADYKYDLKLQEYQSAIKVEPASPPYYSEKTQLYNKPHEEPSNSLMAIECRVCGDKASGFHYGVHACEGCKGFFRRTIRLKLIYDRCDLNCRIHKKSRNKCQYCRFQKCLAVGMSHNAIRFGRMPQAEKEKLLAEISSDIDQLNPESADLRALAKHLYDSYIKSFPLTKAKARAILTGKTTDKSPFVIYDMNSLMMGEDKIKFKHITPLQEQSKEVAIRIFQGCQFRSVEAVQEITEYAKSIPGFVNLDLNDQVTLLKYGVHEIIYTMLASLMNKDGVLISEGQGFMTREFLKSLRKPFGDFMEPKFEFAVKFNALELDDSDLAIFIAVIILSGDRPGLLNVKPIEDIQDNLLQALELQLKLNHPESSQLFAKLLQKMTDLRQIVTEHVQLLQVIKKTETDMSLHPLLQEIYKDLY
Description: Receptor binding affinity to human Peroxisome proliferator activated receptor gamma against [3H]ragalitazar radioligand

[3] = molecular target: T2, Peroxisome proliferator-activated receptor gamma; remark: listed apart in the source
Description: Agonistic activity for human Peroxisome proliferator activated receptor gamma

[4] = molecular target: T1, Peroxisome proliferator-activated receptor alpha; assay: Agonistic activity for Peroxisome proliferator activated receptor alpha; assay type: functional

Row | EC50 [4] [nM] | SMILES | IC50 [1] [nM] | IC50 [2] [nM] | EC50 [3] [nM]
1 | – | CCO[C@H](Cc1ccc(OCCN2c3ccccc3Oc3ccccc32)cc1)C(=O)O | > 10000 | > 10000 | –
2 | – | CCO[C@@H](Cc1ccc(OCCN2c3ccccc3Oc3ccccc32)cc1)C(=O)O [RAGAGLITAZAR] | 980 | – | 600
3 | 1200 | CCO[C@@H](Cc1ccc(OCCc2ccc(OS(C)(=O)=O)cc2)cc1)C(=O)O [TESAGLITAZAR] | 3800 | 350 | 1300
